Assay results taken from ChEMBL document CHEMBL1137536, “Dipeptidyl aspartyl fluoromethylketones as potent caspase inhibitors: peptidomimetic replacement of the P(2) amino acid by 2-aminoaryl acids and other non-natural amino acids” (Bioorg Med Chem Lett, 2007).
Each block holds one compound with its values, some of them ahead of it.

Columns and labels:
[1] = target: T1, Caspase-6 (Homo sapiens, UniProt P55212); experiment: Inhibition of human caspase 6
T1 sequence (P55212 whole entry): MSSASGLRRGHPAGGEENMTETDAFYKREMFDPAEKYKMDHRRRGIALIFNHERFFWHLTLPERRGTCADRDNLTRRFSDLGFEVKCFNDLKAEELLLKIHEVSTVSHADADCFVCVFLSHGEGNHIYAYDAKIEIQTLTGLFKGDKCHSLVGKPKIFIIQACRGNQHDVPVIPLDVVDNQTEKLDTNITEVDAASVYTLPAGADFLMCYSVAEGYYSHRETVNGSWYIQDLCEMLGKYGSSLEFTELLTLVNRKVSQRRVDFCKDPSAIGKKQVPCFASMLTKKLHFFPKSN

[2] = target: T2, Caspase-1 (Homo sapiens, UniProt P29466); experiment: Inhibition of human caspase 1
T2 sequence (P29466 whole entry): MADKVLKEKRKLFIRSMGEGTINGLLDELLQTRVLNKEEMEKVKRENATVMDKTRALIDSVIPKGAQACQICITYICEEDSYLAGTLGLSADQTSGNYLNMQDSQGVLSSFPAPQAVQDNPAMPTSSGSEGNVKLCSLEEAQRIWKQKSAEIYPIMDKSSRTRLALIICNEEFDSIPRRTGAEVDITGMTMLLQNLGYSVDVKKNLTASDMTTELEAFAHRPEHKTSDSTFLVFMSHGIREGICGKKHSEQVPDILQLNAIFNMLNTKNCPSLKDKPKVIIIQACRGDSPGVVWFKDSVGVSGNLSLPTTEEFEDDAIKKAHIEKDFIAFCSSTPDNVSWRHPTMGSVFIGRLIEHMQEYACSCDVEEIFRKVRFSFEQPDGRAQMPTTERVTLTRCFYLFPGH

[3] = target: T3, Caspase-9 (Homo sapiens, UniProt P55211); experiment: Inhibition of human caspase 9
T3 sequence (P55211 whole entry): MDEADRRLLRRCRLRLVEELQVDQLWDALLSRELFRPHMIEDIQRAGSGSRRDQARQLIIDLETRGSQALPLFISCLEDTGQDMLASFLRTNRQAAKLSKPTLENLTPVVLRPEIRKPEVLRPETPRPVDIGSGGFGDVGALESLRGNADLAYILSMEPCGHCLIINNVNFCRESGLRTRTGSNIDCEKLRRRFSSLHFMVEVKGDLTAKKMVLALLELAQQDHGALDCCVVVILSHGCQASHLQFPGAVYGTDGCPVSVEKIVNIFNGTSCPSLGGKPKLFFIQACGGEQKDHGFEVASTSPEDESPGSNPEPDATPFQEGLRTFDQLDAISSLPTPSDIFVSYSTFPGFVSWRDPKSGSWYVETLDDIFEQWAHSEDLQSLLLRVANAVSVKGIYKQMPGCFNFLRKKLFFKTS

[4] = target: T4, Caspase-3 (Homo sapiens, UniProt P42574); experiment: Inhibition of human recombinant caspase 3 by fluorometric assay
T4 sequence (P42574 whole entry): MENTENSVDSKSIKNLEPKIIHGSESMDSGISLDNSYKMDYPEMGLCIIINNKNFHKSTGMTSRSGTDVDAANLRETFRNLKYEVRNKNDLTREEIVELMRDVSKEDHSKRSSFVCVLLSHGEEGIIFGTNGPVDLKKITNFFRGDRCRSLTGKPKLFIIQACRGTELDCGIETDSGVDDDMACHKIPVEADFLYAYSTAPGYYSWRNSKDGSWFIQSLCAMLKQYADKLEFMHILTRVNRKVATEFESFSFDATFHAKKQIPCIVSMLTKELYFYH

[5] = target: T5, Caspase-7 (Homo sapiens, UniProt P55210); experiment: Inhibition of human caspase 7
T5 sequence (P55210 whole entry): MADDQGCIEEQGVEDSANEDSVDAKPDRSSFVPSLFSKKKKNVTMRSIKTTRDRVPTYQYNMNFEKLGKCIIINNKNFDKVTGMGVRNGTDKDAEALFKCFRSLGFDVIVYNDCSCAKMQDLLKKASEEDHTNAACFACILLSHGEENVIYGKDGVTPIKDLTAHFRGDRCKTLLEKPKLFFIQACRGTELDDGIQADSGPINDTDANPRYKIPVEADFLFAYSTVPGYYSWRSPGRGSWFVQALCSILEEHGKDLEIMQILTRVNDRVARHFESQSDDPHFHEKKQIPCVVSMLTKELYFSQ

[6] = target: Caspase-8 (Homo sapiens, UniProt Q14790); experiment: Inhibition of human caspase 8
[7] = system: HeLa; experiment: Inhibition of TNF-alpha-induced apoptosis in HeLa cells assessed as cell protection; settings: Homo sapiens

Caspase-8, sequence (Q14790 217-374 limits assumed): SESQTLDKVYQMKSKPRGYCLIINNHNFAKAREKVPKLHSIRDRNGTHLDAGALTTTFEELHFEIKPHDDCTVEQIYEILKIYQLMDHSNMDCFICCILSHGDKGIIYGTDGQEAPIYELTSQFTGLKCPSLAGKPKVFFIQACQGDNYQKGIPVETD
Caspase-8, sequence (Q14790 385-479 limits assumed): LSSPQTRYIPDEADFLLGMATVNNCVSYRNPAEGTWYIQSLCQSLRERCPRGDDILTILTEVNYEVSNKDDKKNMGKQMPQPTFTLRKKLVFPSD

IC50 [1]: 61 nM | IC50 [2]: 12 nM | IC50 [3]: 6 nM | IC50 [4]: 33 nM | IC50 [5]: 11 nM | IC50 [6]: 6 nM
Structure (SMILES): CC(C)[C@H](NC(=O)OCc1ccccc1)C(=O)Nc1ccccc1C(=O)NC(CC(=O)O)C(=O)CF (stereo not given in full)

IC50 [7]: > 2000 nM
Structure (SMILES): O=C(O)CC(NC(=O)c1sccc1NC(=O)OCc1ccccc1)C(=O)CF (stereo not given)

IC50 [7]: 4000 nM
Structure (SMILES): O=C(O)CC(NC(=O)c1ccccc1NC(=O)OCc1ccccc1)C(=O)CF (stereo not given)

Further lines, the compound ahead of its results:

Structure (SMILES): O=C(O)CN(C(=O)CF)C(=O)[C@H]1CCCN1C(=O)OCc1ccccc1
IC50 [7]: > 2000 nM

Structure (SMILES): O=C(O)CN(C(=O)CF)C(=O)[C@H]1CCN1C(=O)OCc1ccccc1
IC50 [7]: 1700 nM
